Our source for the IC50 and EC50 values is US11021444B2, “Antiviral compounds” (priority 2013, dated 2021).

Each structure is given as a SMILES string.

Assay [1] deals with recombinant RSV complex (Human respiratory syncytial virus A, UniProt P28887). Briefly: RSV Polymerase Inhibition Assay. In kind it is biochemical. In short, it runs like this: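 Inhibition measured as reduced incorporation of radiolabel into RNA products, detected by scintillation counting. Reactions: recombinant RSV complex (10 nM), RNA oligonucleotides, Tris-HCl pH 7.5, 6 mM MgCl2, inhibitor titration, 2 h at 30 °C, EDTA stop.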
recombinant RSV complex, sequence (P28887 whole entry): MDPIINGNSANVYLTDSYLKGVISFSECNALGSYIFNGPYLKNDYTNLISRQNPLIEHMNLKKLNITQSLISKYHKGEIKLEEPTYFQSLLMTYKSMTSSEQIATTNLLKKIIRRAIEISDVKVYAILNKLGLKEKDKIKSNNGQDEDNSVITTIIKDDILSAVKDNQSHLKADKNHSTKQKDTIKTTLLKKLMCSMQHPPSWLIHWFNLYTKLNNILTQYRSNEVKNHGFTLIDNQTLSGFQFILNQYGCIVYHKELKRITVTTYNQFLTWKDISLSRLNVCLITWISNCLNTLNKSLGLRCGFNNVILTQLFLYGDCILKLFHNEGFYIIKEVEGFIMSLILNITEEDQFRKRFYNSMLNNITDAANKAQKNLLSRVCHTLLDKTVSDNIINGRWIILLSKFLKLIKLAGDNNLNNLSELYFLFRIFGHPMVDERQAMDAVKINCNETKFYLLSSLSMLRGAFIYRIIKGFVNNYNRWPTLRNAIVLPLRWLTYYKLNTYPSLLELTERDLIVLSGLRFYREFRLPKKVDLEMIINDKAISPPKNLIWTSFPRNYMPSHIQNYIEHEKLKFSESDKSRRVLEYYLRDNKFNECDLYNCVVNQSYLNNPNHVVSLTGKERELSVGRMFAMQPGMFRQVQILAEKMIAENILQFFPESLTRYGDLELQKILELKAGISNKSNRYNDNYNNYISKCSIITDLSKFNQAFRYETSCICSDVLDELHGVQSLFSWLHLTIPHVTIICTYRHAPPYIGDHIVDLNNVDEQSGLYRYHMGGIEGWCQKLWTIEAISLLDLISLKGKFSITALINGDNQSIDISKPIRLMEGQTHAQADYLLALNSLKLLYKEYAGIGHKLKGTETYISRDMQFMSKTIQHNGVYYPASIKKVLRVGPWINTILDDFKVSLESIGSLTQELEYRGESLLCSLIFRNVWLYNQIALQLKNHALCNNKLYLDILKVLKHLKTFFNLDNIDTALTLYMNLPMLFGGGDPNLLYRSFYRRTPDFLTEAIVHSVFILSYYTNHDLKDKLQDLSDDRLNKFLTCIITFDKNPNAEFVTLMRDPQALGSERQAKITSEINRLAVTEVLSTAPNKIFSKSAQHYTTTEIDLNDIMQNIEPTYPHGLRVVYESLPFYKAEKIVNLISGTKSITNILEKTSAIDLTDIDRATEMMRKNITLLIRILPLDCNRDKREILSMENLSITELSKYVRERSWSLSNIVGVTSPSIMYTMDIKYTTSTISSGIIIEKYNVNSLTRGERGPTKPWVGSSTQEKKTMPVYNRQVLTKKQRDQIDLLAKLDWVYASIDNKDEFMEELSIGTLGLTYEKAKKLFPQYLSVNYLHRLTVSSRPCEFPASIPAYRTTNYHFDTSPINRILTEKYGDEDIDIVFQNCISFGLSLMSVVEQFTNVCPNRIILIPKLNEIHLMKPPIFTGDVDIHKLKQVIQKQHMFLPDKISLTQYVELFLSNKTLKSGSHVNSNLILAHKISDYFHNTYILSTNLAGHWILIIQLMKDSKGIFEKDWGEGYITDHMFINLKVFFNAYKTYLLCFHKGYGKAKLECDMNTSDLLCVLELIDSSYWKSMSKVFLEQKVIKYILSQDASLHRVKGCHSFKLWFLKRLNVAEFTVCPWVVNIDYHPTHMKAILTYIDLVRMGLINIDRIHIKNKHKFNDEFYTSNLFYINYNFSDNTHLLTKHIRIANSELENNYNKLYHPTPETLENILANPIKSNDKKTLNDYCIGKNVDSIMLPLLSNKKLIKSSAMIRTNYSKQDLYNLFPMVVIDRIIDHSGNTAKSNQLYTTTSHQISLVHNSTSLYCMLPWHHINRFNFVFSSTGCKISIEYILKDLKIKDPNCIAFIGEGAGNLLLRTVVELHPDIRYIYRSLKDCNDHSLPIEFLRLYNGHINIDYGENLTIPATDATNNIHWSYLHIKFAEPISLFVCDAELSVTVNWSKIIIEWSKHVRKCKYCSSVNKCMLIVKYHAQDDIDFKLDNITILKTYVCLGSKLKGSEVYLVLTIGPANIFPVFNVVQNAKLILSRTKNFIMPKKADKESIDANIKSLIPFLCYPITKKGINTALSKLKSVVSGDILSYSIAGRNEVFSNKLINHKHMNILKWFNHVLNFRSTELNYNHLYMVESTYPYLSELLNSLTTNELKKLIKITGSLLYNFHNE
recombinant RSV complex, sequence (P03421 whole entry, further chain): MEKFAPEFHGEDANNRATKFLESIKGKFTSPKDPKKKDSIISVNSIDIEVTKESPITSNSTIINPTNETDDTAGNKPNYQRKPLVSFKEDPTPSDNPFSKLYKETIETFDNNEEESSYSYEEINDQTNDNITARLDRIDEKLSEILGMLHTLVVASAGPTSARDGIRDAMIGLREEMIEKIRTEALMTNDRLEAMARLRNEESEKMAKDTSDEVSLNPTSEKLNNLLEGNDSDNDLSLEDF

In assay [2] the test system is RSV replicon. The assay can be described thus: microbe, parasite or virus in culture. The format is cell-based. To be noted: human respiratory syncytial virus, read-out: EC50, the concentration of the drug required for reducing RSV replicon RNA by 50%. In general terms: A replicon is a self-replicating genome or part of one, used to study replication in cells.
Method: The Renilla Luciferase Assay System (Promega, Cat. #E2820) was used to measure anti-RSV replicon activity. […] Luminescence was recorded using a Perkin Elmer multilabel counter Victor3V. EC50, the concentration of the drug required for reducing RSV replicon RNA by 50% in relation to the untreated cell control value, was calculated from the plot of percentage reductions of the optical density (OD) value against the drug concentrations using the Microsoft Excel forecast function.

Usually IC50 stands for the concentration that inhibits the measured activity by half. Turning to `COc1cc(C(=O)NCC(O)(c2cc(C(C)(C)N)cc(-c3ccc(C(F)(F)F)cc3)n2)C(F)(F)F)ccc1OC1CC1` (stereo not shown) [Compound 523], in assay [1], the IC50 was less than 1 µM. Further, the EC50 in assay [2] was less than 1 µM.
On to `COc1cc(C(=O)NCC(C)(O)c2cc3c(c(-c4ccc(F)c(Cl)c4)n2)OCC=C3)ccc1OCCO` (stereo not shown) [Compound 307], for which, in assay [1], the IC50 is less than 1 µM. Also, the EC50 in assay [2] is less than 1 µM.
Take `COc1cc(C(=O)NCC(O)(c2cc(C3(N)CCC3)cc(-c3ccc(F)c(Cl)c3)n2)C(F)(F)F)ccc1OC1CC1` (stereo not shown) [Compound 355]: the IC50 in assay [1] was less than 1 µM. The EC50 in assay [2] is less than 1 µM.
Consider `COc1cc(C(=O)NCC(O)(c2cc([C@]3(C)CCN3)cc(-c3ccc(F)c(Cl)c3)n2)C(F)(F)F)ccc1OC1CC1` (stereo partly shown) [Compound 603], for which, in assay [1], the IC50 was less than 1 µM. Also, the EC50 in assay [2] was less than 1 µM.
For the compound `COc1ccc(C(O)(CNC(=O)c2ccc(OCC(N)=O)c(F)c2)C(F)(F)F)nc1-c1ccc(F)c(Cl)c1` (stereo not shown) [Compound 380], the IC50 in assay [1] was less than 1 µM. The EC50 in assay [2] was less than 1 µM.
As to `CCNC(C)(C)c1cc(-c2ccc(F)c(Cl)c2)nc(C(O)(CNC(=O)c2ccc(OC3CC3)c(OC)c2)C(F)(F)F)c1` (stereo not shown) [Compound 390], the half-inhibitory concentration (IC50) in assay [1] is less than 1 µM. Also, the EC50 in assay [2] was less than 1 µM.
For `COc1cc(C(=O)NCC(C)(OC)c2ccc(OC)c(-c3ccc(F)c(Cl)c3)n2)ccc1OCC(F)F` (stereo not shown) [Compound 375], the concentration for half-maximal inhibition (IC50) in assay [1] is less than 1 µM. The EC50 in assay [2] fell in the range of 1 to 50 µM.
In the same order, the values of `COc1cc(C(=O)NCC(O)(c2cc(C3(C)CN(C(C)C)C3)cc(-c3ccc(F)cc3)n2)C(F)(F)F)ccc1OCCO` (stereo not shown) [Compound 584] are less than 1 µM and less than 1 µM.
`COc1cc(C(=O)NCC(C)(O)c2ccc(OC)c(-c3ccc(F)c(Cl)c3)n2)ccc1-c1ccncc1` (stereo not shown) [Compound 147]: the concentration for half-maximal inhibition (IC50) in assay [1] was less than 1 µM. For the same compound, the EC50 in assay [2] is less than 1 µM.
`COc1cc(C(=O)NCC(O)(c2cc3c(c(-c4ccc(F)cc4)n2)OCC3(C)N)C(F)(F)F)ccc1OC1CC1` (stereo not shown) [Compound 509]: in assay [1], the IC50 was less than 1 µM. Moreover, the EC50 in assay [2] was less than 1 µM.
Consider `COc1cc(C(=O)NCC(O)(c2cc(C(C)(C)NC3COC3)cc(-c3ccc(F)cc3)n2)C(F)(F)F)ccc1OC1CC1` (stereo not shown) [Compound 581], for which, in assay [1], the IC50 is less than 1 µM. For the same compound, in assay [2], the EC50 is less than 1 µM.
Turning to `COc1cc(C(=O)NCC(O)(c2cc(C3(C)CCN(C)C3)cc(-c3ccc(F)cc3)n2)C(F)(F)F)ccc1OC1CC1` (stereo not shown) [Compound 506], in assay [1], the 50% inhibitory concentration (IC50) was less than 1 µM. For the same compound, in assay [2], the EC50 is less than 1 µM.
As for `COc1cc(C(=O)NCC(O)(c2ccc(OC)c(-c3ccc(F)c(Cl)c3)n2)C(F)(F)F)ccc1OC(C)C` (stereo not shown) [Compound 378], the half-maximal inhibitory concentration (IC50) in assay [1] was less than 1 µM. The EC50 in assay [2] lay within 1 to 50 µM.
In the same order, the values of `CNC(C)(C)c1cc(-c2ccc(F)cc2)nc(C(O)(CNC(=O)c2ccc(OC3CC3)c(OC)c2)C(F)(F)F)c1` (stereo not shown) [Compound 393] are less than 1 µM and less than 1 µM.
In the case of `COc1cc(C(=O)NCC(O)(c2cc3c(c(-c4c[nH]c5c(F)cccc45)n2)OCC3(C)N)C(F)(F)F)ccc1OCCO` (stereo not shown) [Compound 647], the IC50 in assay [1] was less than 1 µM. Also, the EC50 in assay [2] was less than 1 µM.
Consider `COc1cc(C(=O)NCC(O)(c2cc(C3(O)CNC3)cc(-c3ccc(F)c(Cl)c3)n2)C(F)(F)F)ccc1OC1CC1` (stereo not shown) [Compound 555], for which, in assay [1], the 50% inhibitory concentration (IC50) was less than 1 µM. In addition, the EC50 in assay [2] was less than 1 µM.
`COc1cc(C(=O)NCC(O)(c2cc(C(C)(N)CO)cc(-c3ccc(F)cc3)n2)C(F)(F)F)ccc1OC1CC1` (stereo not shown) [Compound 600]: the IC50 in assay [1] was less than 1 µM. In assay [2], the EC50 was less than 1 µM.
As for `COc1cc(C(=O)NCC(O)(c2cc3c(c(-c4ccc(F)c(Cl)c4)n2)OCC=C3)C2CC2)ccc1OCCO` (stereo not shown) [Compound 306], the half-inhibitory concentration (IC50) in assay [1] was less than 1 µM. Besides, the EC50 in assay [2] was less than 1 µM.
Turning to `COc1cc(C(=O)NCC(=O)c2cc3c(c(-c4ccc(F)c(Cl)c4)n2)OCCC3(C)C)ccc1OCCO` [Compound 311], the IC50 in assay [1] was less than 1 µM. In assay [2], the EC50 was less than 1 µM.
Take `COc1cc(C(=O)NCC(O)(c2cc(C(C)(C)CN)cc(-c3ccc(F)c(Cl)c3)n2)C(F)(F)F)ccc1OC1CC1` (stereo not shown) [Compound 397]: the IC50 in assay [1] was less than 1 µM. The EC50 in assay [2] is less than 1 µM.
`COc1cc(C(=O)NCC(O)(c2cc(C(C)(C)N)cc(-c3ccc(F)cc3)n2)C(F)(F)F)ccc1OC/C(N)=N/O` (stereo not shown) [Compound 636]: the IC50 in assay [1] is less than 1 µM. Further, in assay [2], the EC50 is less than 1 µM.
Turning to `COC(=O)C(C)(N)c1cc(-c2ccc(F)cc2)nc(C(O)(CNC(=O)c2ccc(OC3CC3)c(OC)c2)C(F)(F)F)c1` (stereo not shown) [Compound 622], the IC50 in assay [1] was less than 1 µM. In assay [2], the EC50 is less than 1 µM.
Consider `COc1cc(C(=O)NCC(O)(c2cc(C(C)(C)N)cc(-c3ccc(F)c(Cl)c3)n2)C(F)(F)F)ccc1OCC(F)F` (stereo not shown) [Compound 395], for which the 50% inhibitory concentration (IC50) in assay [1] was less than 1 µM. Besides, the EC50 in assay [2] is less than 1 µM.
As to `CCNCc1cc(-c2ccc(F)cc2)nc(C(O)(CNC(=O)c2ccc(OC3CC3)c(OC)c2)C(F)(F)F)c1` (stereo not shown) [Compound 389], the 50% inhibitory concentration (IC50) in assay [1] is less than 1 µM. Further, in assay [2], the EC50 was less than 1 µM.
With `COc1cc(-c2cc(C(C)(C)N)cc(C(O)(CNC(=O)c3ccc(OCCO)c(OC)c3)C(F)(F)F)n2)ccn1` (stereo not shown) [Compound 659], the half-maximal inhibitory concentration (IC50) in assay [1] is less than 10 µM. Further, in assay [2], the EC50 was less than 1 µM.
As for `COc1cc(C(=O)NCC(O)(c2cc3c(c(-c4ccc(Br)cc4)n2)OCC3(C)N)C(F)(F)F)ccc1OCCO` (stereo not shown) [Compound 651], the IC50 in assay [1] was less than 1 µM. In addition, the EC50 in assay [2] is less than 1 µM.
For `COc1cc(C(=O)NCC(O)(c2cc(C3(C)CC(O)C3)cc(-c3ccc(F)c(Cl)c3)n2)C(F)(F)F)ccc1OC1CC1` (stereo not shown) [Compound 564], the 50% inhibitory concentration (IC50) in assay [1] is less than 10 µM. The EC50 in assay [2] is less than 1 µM.
In the same order, the values of `COc1cc(C(=O)NCC(C)(OC)c2ccc(OC)c(-c3ccc(F)c(Cl)c3)n2)ccc1OC1CC1` (stereo not shown) [Compound 376] are less than 1 µM and less than 1 µM.
The corresponding values for `COc1cc(C(=O)NCC(O)(c2cc(C(C)(C)N)cc(-c3ccc(F)c(Cl)c3)n2)C(F)(F)F)ccc1OCC(C)OC(=O)OC(C)C` (stereo not shown) [Compound 572] are less than 10 µM and less than 1 µM.
In the same order, the values of `COc1cc(C(=O)NCC(C)(O)c2ccc(OC)c(-c3ccc(F)c(Cl)c3)n2)ccc1OCS(C)(=O)=O` (stereo not shown) [Compound 379] are less than 1 µM and less than 1 µM.
In the case of `COc1cc(C(=O)NCC(O)(c2cc(C(C)(C)N)cc(-c3ccc(F)c(Br)c3)n2)C(F)(F)F)ccc1OC1CC1` (stereo not shown) [Compound 524], the half-inhibitory concentration (IC50) in assay [1] is less than 1 µM. The EC50 in assay [2] was less than 1 µM.
With `COc1cc(C(=O)NCC(C)(O)c2ccc(OC)c(-c3ccc(F)c(Cl)c3)n2)ccc1-n1cccn1` (stereo not shown) [Compound 128], the IC50 in assay [1] was less than 1 µM. Further, the EC50 in assay [2] was in the range of 1 to 50 µM.
On to `COc1cc(C(=O)NCC(O)(c2cc(C3(NC(C)=O)CCC3)cc(-c3ccc(F)c(Cl)c3)n2)C(F)(F)F)ccc1OC1CC1` (stereo not shown) [Compound 354], for which, in assay [1], the half-inhibitory concentration (IC50) was less than 1 µM. In assay [2], the EC50 is less than 1 µM.
For the compound `COc1cc(C(=O)NCC(O)(c2ccc(OC)c(-c3ccc(F)c(Cl)c3)n2)C(F)(F)F)ccc1OCc1ccn[nH]1` (stereo not shown) [Compound 332], the IC50 in assay [1] was less than 1 µM. For the same compound, the EC50 in assay [2] is 1 to 50 µM.
The corresponding values for `COc1cc(C(=O)NCC(O)(c2ccc(OC)c(-c3ccc(F)c(Cl)c3)n2)C2CC2)ccc1OCC(N)=O` (stereo not shown) [Compound 398] are less than 1 µM and less than 1 µM.
